For 28 compounds, IC50 results are on record in patent publication US10112958B2, “N-[2-(2-amino-6,6-disubstituted-4,4a,5,6-tetrahydropyrano[3,4-d][1,3]thiazin-8a(8H)-YL)-1,3-thiazol-4-YL] amides” (Pfizer Inc., priority 2015, dated 2018).

As usually defined, the IC50 is the concentration needed to halve the response being measured. Low values mean greater potency, high ones weaker potency.

Molecules are shown by their SMILES.

T1 sequence (P56817 46-457 limits assumed): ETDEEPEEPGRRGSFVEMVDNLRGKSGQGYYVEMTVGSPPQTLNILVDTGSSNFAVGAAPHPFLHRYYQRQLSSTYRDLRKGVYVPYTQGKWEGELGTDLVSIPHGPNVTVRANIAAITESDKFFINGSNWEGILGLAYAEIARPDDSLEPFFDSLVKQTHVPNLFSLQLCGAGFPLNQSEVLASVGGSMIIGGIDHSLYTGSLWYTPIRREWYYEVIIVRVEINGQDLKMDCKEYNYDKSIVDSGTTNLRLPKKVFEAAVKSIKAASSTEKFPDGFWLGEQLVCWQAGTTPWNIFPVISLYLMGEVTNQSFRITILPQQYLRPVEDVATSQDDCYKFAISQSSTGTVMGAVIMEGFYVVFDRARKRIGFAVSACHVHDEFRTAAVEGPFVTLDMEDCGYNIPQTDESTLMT

The assay concerns the target T1, BACE1 enzyme (Homo sapiens, UniProt P56817).
T1 construct: transfected with a soluble BACE construct (BACE1deltaTM96His); His (C); made in house; host or cells: CHO-K1 cells (secreted into conditioned media)
Description: BACE1 Cell-Free Assay (fluorescence polarization, cleavage of synthetic APP substrate). Type of assay: biochemical. As to conditions: geometric mean of 2-4 determinations unless otherwise indicated (b: ≥5 determinations; c: single determination); 0.1 nM BACE1, 150 nM peptide substrate, pH 4.5, 3 hours at 37° C. The text has this:
BACE1 Cell-Free Assay: Beta-secretase (BACE) is one of the enzymes involved in the generation of the amyloid beta peptide found in the amyloid plaques of Alzheimer's disease patients. This assay measures the inhibition of the beta-secretase enzyme as it cleaves a non-native peptide.
A synthetic APP substrate that can be cleaved by beta-secretase having N-terminal biotin and made fluorescent by the covalent attachment of Oregon Green at the Cys residue is used to assay beta-secretase activity in the presence or absence of the inhibitory compounds. The substrate is Biotin-GLTNIKTEEISEISY^EVEFR-C[Oregon Green]KK-OH. The BACE1 enzyme is affinity purified material from conditioned media of CHO-K1 cells that have been transfected with a soluble BACE construct (BACE1deltaTM96His). Compounds are incubated in a ½ log dose response curve from a top concentration of 100 μM with BACE1 enzyme and the biotinylated fluorescent peptide in 384-well black plates (Thermo Scientific #4318). BACE1 is at a final concentration of 0.1 nM with a final concentration of peptide substrate of 150 nM in a reaction volume of 30 μL assay buffer [100 mM sodium acetate, pH 4.5 (brought to pH with acetic acid), and 0.001% Tween-20]. Plates are covered and incubated for 3 hours at 37° C. The reaction is stopped with the addition of 30 μL of 1.5 μM Streptavidin (Pierce, #21125). After a 10 minute incubation at room temperature, plates are read on a PerkinElmer EnVision for fluorescence polarization (Ex485 nm/Em530 nm). The activity of the beta-secretase enzyme is detected by changes in the fluorescence polarization that occur when the substrate is cleaved by the enzyme.
In general terms: In fluorescence polarisation assays a small probe gives low polarisation when free and higher when bound to something large.
With `COC[C@@]1(C)C[C@H]2CSC(N)=N[C@@]2(c2nc(NC(=O)c3ccc(OC(F)F)cn3)cs2)CO1` [Example 9, N-{2-[(4aR,6R,8aR)-2-amino-6-(methoxymethyl)-6-methyl-4,4a,5,6-tetrahydropyrano[3,4-d][1,3]thiazin-8a(8H)-yl]-1,3-thiazol-4-yl}-5-(difluoromethoxy) pyridine-2-carboxamide], the half-maximal inhibitory concentration (IC50) was 105 nM. The compound `C[C@@]1(CF)C[C@H]2CSC(N)=N[C@@]2(c2nc(NC(=O)c3ccc(OC(F)F)cn3)cs2)CO1` [Example 34, N-{2-[(4aR,6S,8aR)-2-amino-6-(fluoromethyl)-6-methyl-4,4a,5,6-tetrahydropyrano[3,4-d][1,3]thiazin-8a(8H)-yl]-1,3-thiazol-4-yl}-5-(difluoromethoxy) pyridine-2-carboxamide] came in with an IC50 of 194 nM. This IC50 lies about 1.8-fold higher than the previous one.

Regarding `CC1(C)C[C@@H]2CSC(N)=N[C@]2(c2nc(NC(=O)c3ccc(OC(F)F)cn3)cs2)CO1` (single isomer, unassigned) [Example 15], the IC50 was 22200 nM. Against the preceding compound, the IC50 is about 110-fold higher. `CC1(C)C[C@H]2CSC(N)=N[C@@]2(c2nc(NC(=O)c3ncc(OC(F)F)cc3Cl)cs2)CO1` [Example 30, N-{2-[(4aR,8aR)-2-amino-6,6-dimethyl-4,4a,5,6-tetrahydropyrano[3,4-d][1,3]thiazin-8a(8H)-yl]-1,3-thiazol-4-yl}-3-chloro-5-(difluoromethoxy)pyridine-2-carboxamide] displayed an IC50 of 59 nM. The same measure for `NC1=N[C@@]2(c3nc(NC(=O)c4ccc(OC(F)F)cn4)cs3)COC3(COC3)C[C@H]2CS1` [Example 29, N-{2-[(4a′R,8a′R)-2′-amino-4a′,5′-dihydro-4′H-spiro[oxetane-3,6′-pyrano[3,4-d][1,3]thiazin]-8a′(8′H)-yl]-1,3-thiazol-4-yl}-5-(difluoromethoxy)pyridine-2-carboxamide]: 675 nM; for `CC1(C)C[C@@H]2CSC(N)=N[C@]2(c2nc(NC(=O)c3ccn(C(F)F)n3)cs2)CO1` (single isomer, unassigned) [Example 11]: 6960 nM; for `Cc1cc(OC(F)F)cnc1C(=O)Nc1csc([C@]23COC(C)(C)C[C@H]2CSC(N)=N3)n1` [Example 24, N-{2-[(4aR,8aR)-2-amino-6,6-dimethyl-4,4a,5,6-tetrahydropyrano[3,4-d][1,3]thiazin-8a(8H)-yl]-1,3-thiazol-4-yl}-5-(difluoromethoxy)-3-methylpyridine-2-carboxamide]: 47 nM. As to `NC1=N[C@@]2(c3nc(NC(=O)c4ccc(OC(F)F)cn4)cs3)COC(CF)(CF)C[C@H]2CS1` [Example 10, N-{2-[(4aR,8aR)-2-amino-6,6-bis(fluoromethyl)-4,4a,5,6-tetrahydropyrano[3,4-d][1,3]thiazin-8a(8H)-yl]-1,3-thiazol-4-yl}-5-(difluoromethoxy)pyridine-2-carboxamide], the IC50 is 565 nM.

For the compound `CC1(C)C[C@H]2CSC(N)=N[C@@]2(c2nc(NC(=O)c3cnc(OC(F)F)cn3)cs2)CO1` (single isomer, unassigned) [Example 14], the IC50 came to 167 nM. `NC1=N[C@@]2(c3nc(NC(=O)c4ccc(OC(F)F)cn4)cs3)COC3(CC3)C[C@H]2CS1` (single isomer, unassigned) [Example 39, N-{2-[(4a′R,8a′R)-2′-amino-4a′,5′-dihydro-4′H-spiro[cyclopropane-1,6′-pyrano[3,4-d] [1,3]thiazin]-8a′(8′H)-yl]-1,3-thiazol-4-yl}-5-(difluoromethoxy)pyridine-2-carboxamide]: half-maximal inhibition (IC50) was put at 314 nM. In turn, `CC#CCOc1cnc(C(=O)Nc2csc([C@]34COC(C)(C)C[C@H]3CSC(N)=N4)n2)cn1` (single isomer, unassigned) [Example 21] registered an IC50 of 41 nM. With `COC[C@]1(C)C[C@H]2CSC(N)=N[C@@]2(c2nc(NC(=O)c3ccc(OC(F)F)cn3)cs2)CO1` [Example 40, N-{2-[(4aR,6S,8aR)-2-amino-6-(methoxymethyl)-6-methyl-4,4a,5,6-tetrahydropyrano[3,4-d][1,3]thiazin-8a(8H)-yl]-1,3-thiazol-4-yl}-5-(difluoromethoxy) pyridine-2-carboxamide], the IC50 worked out at 2080 nM. This IC50 lies about 51-fold higher than the previous one. As for `CC1(C)C[C@@H]2CSC(N)=N[C@]2(c2nc(NC(=O)c3cnc(OC(F)F)cn3)cs2)CO1` (single isomer, unassigned) [Example 13], it took 7950 nM to reach half-maximal inhibition (IC50). This IC50 is about 3.8-fold higher than that of the compound before. Compound `C[C@]1(CF)C[C@H]2CSC(N)=N[C@@]2(c2nc(NC(=O)c3ccc(OC(F)F)cn3)cs2)CO1` [Example 35, N-{2-[(4aR,6R,8aR)-2-amino-6-(fluoromethyl)-6-methyl-4,4a,5,6-tetrahydropyrano[3,4-d][1,3]thiazin-8a(8H)-yl]-1,3-thiazol-4-yl}-5-(difluoromethoxy) pyridine-2-carboxamide] returned an IC50 of 176 nM. `COC(C)(C)C(=O)Nc1csc([C@]23COC(C)(C)C[C@H]2CSC(N)=N3)n1` [Example 32, N-{2-[(4aR,8aR)-2-amino-6,6-dimethyl-4,4a,5,6-tetrahydropyrano[3,4-d][1,3]thiazin-8a(8H)-yl]-1,3-thiazol-4-yl}-2-methoxy-2-methylpropanamide] yielded a concentration for half-maximal inhibition (IC50) of 1690 nM. In turn, `CC1(C)C[C@H]2CSC(N)=N[C@@]2(c2nc(NC(=O)C(C)(C)F)cs2)CO1` [Example 31, N-{2-[(4aR,8aR)-2-amino-6,6-dimethyl-4,4a,5,6-tetrahydropyrano[3,4-d][1,3]thiazin-8a(8H)-yl]-1,3-thiazol-4-yl}-2-fluoro-2-methylpropanamide] had an IC50 of 911 nM. For `CC1(C)C[C@@H]2CSC(N)=N[C@]2(c2nc(NC(=O)c3coc(CF)n3)cs2)CO1` (single isomer, unassigned) [Example 22], the IC50 was determined as 15100 nM. The value for `NC1=N[C@@]2(c3nc(NC(=O)c4ccc(Cl)cn4)cs3)COC3(CCC3)C[C@H]2CS1` [Example 6, N-{2-[(4a′R,8a′R)-2′-amino-4a′,5′-dihydro-4′H-spiro[cyclobutane-1,6′-pyrano[3,4-d][1,3]thiazin]-8a′(8′H)-yl]-1,3-thiazol-4-yl}-5-chloropyridine-2-carboxamide] was 88 nM; that for `CC[C@]1(C)C[C@@H]2CSC(N)=N[C@]2(c2nc(NC(=O)c3ccc(OC(F)F)cn3)cs2)CO1` [Example 28, N-{2-[(4aS,6R,8aS)-2-amino-6-ethyl-6-methyl-4,4a,5,6-tetrahydropyrano[3,4-d][1,3]thiazin-8a(8H)-yl]-1,3-thiazol-4-yl}-5-(difluoromethoxy)pyridine-2-carboxamide] was 14800 nM.

`CC(F)(F)COc1cnc(C(=O)Nc2csc([C@]34COC(C)(C)C[C@H]3CSC(N)=N4)n2)cn1` (single isomer, unassigned) [Example 19] yielded an IC50 of 421 nM. The same measure for `NC1=N[C@@]2(c3nc(NC(=O)c4ccc(OC(F)F)cn4)cs3)COC3(CCC3)C[C@H]2CS1` (racemic) [Example 3, N-{2-[cis-2′-amino-4a′,5′-dihydro-4′H-spiro[cyclobutane-1,6′-pyrano[3,4-d][1,3]thiazin]-8a′(8′H)-yl]-1,3-thiazol-4-yl}-5-(difluoromethoxy)pyridine-2-carboxamide]: 252 nM. Turning to `CC(F)(F)Oc1ccc(C(=O)Nc2csc([C@@]34COC(C)(C)C[C@@H]3CSC(N)=N4)n2)nc1` (single isomer, unassigned) [Example 16], the IC50 came to 28500 nM.

In turn, `NC1=N[C@]2(c3nc(NC(=O)c4ccc(OC(F)F)cn4)cs3)COC3(CC3)C[C@@H]2CS1` (single isomer, unassigned) [Example 38, N-{2-[(4a′S,8a′S)-2′-amino-4a′,5′-dihydro-4′H-spiro[cyclopropane-1,6′-pyrano[3,4-d][1,3]thiazin]-8a′(8′H)-yl]-1,3-thiazol-4-yl}-5-(difluoromethoxy)pyridine-2-carboxamide] had an IC50 of 34500 nM. The value for `CC1(C)C[C@H]2CSC(N)=N[C@@]2(c2nc(NC(=O)c3coc(CF)n3)cs2)CO1` (single isomer, unassigned) [Example 23] was 17 nM.

In turn, `CC(F)(F)COc1cnc(C(=O)Nc2csc([C@@]34COC(C)(C)C[C@@H]3CSC(N)=N4)n2)cn1` (single isomer, unassigned) [Example 18] yielded an IC50 of 61700 nM. Compared with the last compound, the IC50 is about 3600-fold higher. The value for `Cc1cc(OC(F)F)cnc1C(=O)Nc1csc([C@@]23COC(C)(C)C[C@@H]2CSC(N)=N3)n1` (single isomer, unassigned) [Example 25] was 14800 nM; that for `CC[C@@]1(C)C[C@H]2CSC(N)=N[C@@]2(c2nc(NC(=O)C3C4CC3C4)cs2)CO1` (stereo partly drawn) [Example 37, N-{2-[(4aR,6S,8aR)-2-amino-6-ethyl-6-methyl-4,4a,5,6-tetrahydropyrano[3,4-d][1,3]thiazin-8a(8H)-yl]-1,3-thiazol-4-yl}bicyclo[1.1.1]pentane-2-carboxamide] was 177 nM. In turn, `CC#CCOc1cnc(C(=O)Nc2csc([C@@]34COC(C)(C)C[C@@H]3CSC(N)=N4)n2)cn1` (single isomer, unassigned) [Example 20] registered an IC50 of 15500 nM.
